The values that follow come from patent US6150363A, “Dihydrophenazinecarboxylic acid derivatives” (priority 1996, dated 2000).

Each structure is given as a SMILES string. Structures can show the parent of a compound that is named as a salt.

Data set [1] concerns N18-RE-105 cell. In words: Test for inhibition of glutamic acid toxicity to neurocyte (LDH release). The format is cell-based, hybridoma of mouse neuroblastoma and rat retinal neurocyte. The settings on record: for EC50: 10 mM glutamic acid, 24 hours; for cytoprotective action to glutamic acid toxicity in neurocyte: result in words. On the procedure:
Neuron 2, 1547 (1989) and J. Pharmacol. Exp. […] The dihydrophenazinecarboxylic acid derivatives of the invention were examined in the action to the glutamic acid-induced cell death. […] Hybridoma cells were plated at 6.25×10^3 cells/cm^2. on 96 well microplate in Dalbecco's modified MEM containing 10% FBS (fetal bovine serum) and HAT (hypoxanthine 0.1 mM, aminopterin 40 nM, thymidine 0.14 mM, Sigma Chem., Co.). […] After the addition of glutamic acid, the culture was maintained for further 24 hours. Then, the activity of lactate dehydrogenase (LDH) contained in the cells and the medium was determined. The LDH releasing ratio was calculated using the below-mentioned equation to examine the glutamic acid toxicity. LDH releasing ratio=[LDH activity in medium/(LDH activity in cells and LDH activity in medium)]×100
(In general: LDH in the medium is a marker of cell lysis.)

Data set [2] deals with N18-RE-105 cell. As to the kind of experiment: Test for inhibition of BSO toxicity to neurocyte (LDH release). The format is cell-based, hybridoma of mouse neuroblastoma and rat retinal neurocyte. The following applies: for EC50: BSO 500 μM, 24 hours; for cytoprotective action to BSO toxicity in neurocyte: result in words. Here is the method:
(2) Test for inhibition of BSO toxicity to neurocyte (neurocyte protective action against cytotoxicity accompanied by decrease of amount of intracellular glutathione)
The culture of neurocyte N18-RE-105, addition of the test compound, and determination of lactate dehydrogenase (LDH) were carried out in the manner as described in (1) above. BSO was added at the concentration of 500 μM.

In another data set the test system is ddY strain male mice. As to the kind of experiment: Acute toxicity, intravenous, mice. The format is in vivo. The following applies: 5 mg, intravenous injection. On the procedure:
The compound of the invention (ethyl 7-benzoyl-5,10-dihydro-1-phenazinecarboxylate obtained in Example 1) was administered to ddY strain male mice (weight: 23 to 27 g) in a dose of 5 mg by intravenous injection.

In data set [3] the test system is rat whole brain homogenate. In words: Test for inhibition of production of peroxidized lipid in rat whole brain homogenate (TBA method). The format is biochemical. The following applies: 10^-4 M, iron-ascorbic acid, 37° C., one hour. The source says:
(4) Test for inhibition of production of peroxidized lipid in rat whole brain homogenate
From the rat which had been fed with vitamin E deficient food for 11 weeks, a whole brain was taken out and frozen in liquid nitrogen. After the frozen whole brain was pulverized to give a powder, it was homogenized by Dounce type homogenizer. The homogenate was subjected to centrifugal separation at 180×g for 10 minuets, and the supernatant was recovered. The recovered supernatant was employed as the whole brain homogenate. The reaction of lipid peroxidation was initiated by stimulation using iron-ascorbic acid. The peroxidized lipid was quantitatively analyzed by the thiobarbituric acid (TBA) method. In more detail, 200 μL of the whole brain homogenate (protein content: 12.5 mg/mL), 50 μL of ADP (2 mg/mL), 50 μL of FeSO4 (0.5 mM), 50 μL of ascorbic acid (12 mM), and 50 μL of the test compound were added to 100 μL of 0.2M Tris-HCl buffer solution. The mixture was incubated at 37° C. for one hour. After the incubation was complete, 50 μL of 0.5% butylhydroxytoluene/ethanol solution, 250 μL of 8.1% SDS (sodium dodecylsulfate) solution, 1,750 μL of 20% acetic acid, and 1,500 μL of 0.8% TBA solution were added to the incubated mixture. The resulting mixture was boiled for one hour. […] The separated supernatant was subjected to measurement of absorbance at 535 nm.

The test system of another data set is hippocampal cells. In words: Test for inhibition of glutamic acid toxicity to hippocampal cells in primary culture (LDH). The format is cell-based. The settings on record: hippocampal cell, rat fetus, 1 mM glutamic acid, 48 hours. From the text:
1) Preparation of hippocampal cells (from rat fetus in primary culture) A pregnant rat (18 days pregnancy) was anesthetized by Pentobarbital sodium. Its abdomen was sterilized using 83% ethanol and treated to take its fetus out. The whole brain was taken out from the fetus under stereomicroscopical observation. From the brain, its hippocampal portion was taken out. The hippocampal portion was cut into small pieces using a knife. The procedures for taking the hippocampal portion out and cutting the portion into small pieces were performed in a Hanks buffer solution (4° C.) without Ca^2+ and Mg^2+. The pieces of hippocampus were treated with 0.25% trypsin/0.01% DNase I solution at 37° C. for 30 minutes. After the addition of dialyzed FBS at the concentration of 20%, the treated specimen was recovered by centrifugal separation and suspended in DMEM containing GMS-A obtained from GIBCO (S1 culture medium). The specimen was gently treated by a pipet to give a cell suspension. […] 2) Determination of activity (Lactate dehydrogenase (LDH) method) The cytoprotective action of the test compound was determined by measuring activity of LDH released from the dead cells and activity of LDH in the living cells. […] After the culturing procedure was complete, the activity of lactate dehydrogenase was determined in the manner described in 1) above.

A further data set deals with free radical. The following applies: cited from earlier work; for antioxidant property: J. Antibiotics, 48, 1378 (1995) and PCT WO96/22996; for free radical scavenger (anti-oxidant): J. Nat. Prod., 56, 1255(1993).
The next data set has as its system glutamic acid toxicity. The following applies: J. Antibiotics, 48, 1378 (1995) and PCT WO96/22996; cited from earlier work.
Data set [4] can be described thus: Stability at room temperature under atmospheric conditions. The format is physicochemical.

Consider `CCOC(=O)c1cccc2c1Nc1ccc(C(=O)c3ccccc3)cc1N2C(=O)OC` [Comparative, Ethyl 7-benzoyl-5,10-dihydro-5-methoxycarbonyl-1-phenazinecarboxylate], for which, in the data set on N18-RE-105 cell [1], the EC50 was over 1000 nM and the “cytoprotective action to glutamic acid toxicity in neurocyte” value was “no cytoprotective action”. Moreover, in the data set with N18-RE-105 cell [2], the EC50 was over 1000 nM and the “cytoprotective action to BSO toxicity in neurocyte” value is reported as “no cytoprotective action”.

Regarding `CCOC(=O)c1cccc2c1Nc1ccc(C(=O)c3ccccc3)cc1N2` [Compound 1, Ethyl 7-benzoyl-5,10-dihydro-1-phenazinecarboxylate], in the data set on ddY strain male mice, the “death (acute toxicity)” value was “No death was observed”. The EC50 is 3.3 nM with N18-RE-105 cell [1] and 6 nM in the data set on N18-RE-105 cell [2].

Turning to `CCOC(=O)c1cccc2c1Nc1ccc(C(=O)c3ccccc3)cc1N2CC=C(C)C` [Compound 2, Ethyl 7-benzoyl-5,10-dihydro-5-(3-methyl-2-butenyl)-1-phenazinecarboxylate], the EC50 in the data set with N18-RE-105 cell [1] amounted to 14.5 nM; in the data set on N18-RE-105 cell [2] it was 96.2 nM. Moreover, the “Inhibition of lipid peroxidation (% per control value)” value in data set [3] worked out at 60.2%. This compound gave an EC25 in the data set with hippocampal cells of 12 nM.

Consider `CCOC(=O)c1cccc2c1Nc1ccc(C(=O)c3ccccc3)cc1N2Cc1ccccc1` [Compound 3, Ethyl 7-benzoyl-5-benzyl-5,10-dihydro-1-phenazinecarboxylate], for which the results for the EC50 with N18-RE-105 cell [1] and in the data set with N18-RE-105 cell [2] were 40.7 nM and 72 nM, respectively.

Turning to `CCOC(=O)c1cccc2c1Nc1ccc(C(=O)c3ccccc3)cc1N2C` [Compound 4, Ethyl 7-benzoyl-5,10-dihydro-5-methyl-1-phenazinecarboxylate], the figures for the EC50 in the data set with N18-RE-105 cell [1] and in the data set on N18-RE-105 cell [2] were 58 nM and 90 nM, respectively.

With `CC(C)=CCN1c2cc(C(=O)c3ccccc3)ccc2Nc2c(C(=O)OCCCN(C)C)cccc21` [Compound 5, 3-(Dimethylamino)propyl 7-benzoyl-5,10-dihydro-5-(3-methyl-2-butenyl)-1-phenazinecarboxylate hydrochloride], in the data set on hippocampal cells, the 25% effect level (EC25) was put at 57.5 nM.

In the case of `O=c1c2ccccc2[se]n1-c1ccccc1` [Ebselen, ebselen], in the data set on N18-RE-105 cell [1], the midpoint of the response, the EC50, lay at 10100 nM and the “cytoprotective action to glutamic acid toxicity in neurocyte” value is recorded as “no cytoprotective action”. Moreover, in the data set on N18-RE-105 cell [2], the EC50 was 7500 nM and the “cytoprotective action to BSO toxicity in neurocyte” value is listed as “no cytoprotective action”.

Take `CC(CNC(=O)c1cccnc1)NC(=O)c1cccnc1` (stereo not shown) [Nicarven, nicaraven]: in the data set on N18-RE-105 cell [1], the EC50 is over 100000 nM and the “cytoprotective action to glutamic acid toxicity in neurocyte” value was “no cytoprotective action”. For the same compound, in the data set on N18-RE-105 cell [2], the EC50 was over 100000 nM and the “cytoprotective action to BSO toxicity in neurocyte” value is recorded as “no cytoprotective action”.

`CC(C)=CCN1c2cc(C(=O)c3ccccc3)ccc2Nc2c(C(=O)OC3O[C@@H](C)[C@H](O)[C@@H](O)[C@H]3O)cccc21` (stereo partly shown) [aestivophoenin A]: in the data set on free radical, the antioxidant property result is recorded as “shows antioxidant property”. Moreover, the “inhibition of glutamic acid toxicity” value in the data set on glutamic acid toxicity is recorded as “inhibit glutamic acid toxicity”.

`CC(C)=CCc1cc(C(=O)c2ccccc2)cc2c1Nc1c(C(=O)OC3O[C@@H](C)[C@H](O)[C@@H](O)[C@H]3O)cccc1N2CC=C(C)C` (stereo partly shown) [aestivophoenin B]: the antioxidant property result with free radical is given as “shows antioxidant property”. In the data set on glutamic acid toxicity, the “inhibition of glutamic acid toxicity” value was “inhibit glutamic acid toxicity”.

`CC(C)=CCC/C(C)=C/CN1c2cc(C(=O)c3ccccc3)ccc2Nc2c(C(=O)O)cc(C(=O)c3ccccc3)cc21` [benthophoenin]: the “free radical scavenger (anti-oxidant)” value in the data set with free radical is on record as “employable as a free radical scavenger (anti-oxidant)”.

Turning to `CCOC(=O)c1cccc2c1Nc1ccccc1N2` [ethyl 5,10-dihydro-1-phenazinecarboxylate], in data set [4], the stability result was “unstable at room temperature”.

Consider `COC(=O)c1cc(C(=O)c2ccccc2)cc2c1Nc1ccc(C(=O)c3ccccc3)cc1N2C/C=C(\C)CCC=C(C)C` [its methyl ester], for which the “free radical scavenger (anti-oxidant)” value in the data set on free radical is recorded as “employable as a free radical scavenger (anti-oxidant)”.

A word on the EC50: it is the concentration needed to bring the measured effect to its halfway point. Low values mean an effect from little substance, high ones a need for much substance. The term EC25 denotes the point of the concentration-response curve where the effect stands at 25%. Read a low EC25 as an effect from little substance.
